Measurements published in patent US20200270309A1, “MALEIMIDE GROUP-MODIFIED ANGIOGENESIS INHIBITOR HM-1 AND USE THEREOF” (NANJING ANJI BIOLOGICAL TECHNOLOGY CO., LTD, priority 2017, published 2020).
Peptide text beside a SMILES is read from it. * marks the point of attachment. X54 = O=C1C=CC(=O)N1c1cccc(CCCCCCC(=O)*)c1; X55 = O=C1C=CC(=O)N1c1ccccc1CCCCCCCCC(=O)*; X63 = O=C1C=CC(=O)N1c1ccccc1CCCCCCC(=O)*

Tests used:
[1] = Half-lives and pharmacokinetic parameters of polypeptides vs HM-1; conditions: in vivo; for half-life: T1/2β (half-life)
adjuvant arthritis = assay: Rat adjuvant arthritis (AA) animal model; type: in vivo, SD rats; conditions: 4.0 mg/kg; for Clinical score: intravenous in the tail once every five days from day 10, four paws scored 0-4, max 16, mean±SD; for Joint swelling degree / Left and right paw swelling degree: intravenous in the tail once every five days from day 10, mean±SD
HUVECs = assay: Transwell migration inhibition on HUVECs; type: cell-based, human; conditions: for Inhibition rate (%): HUVEC migration vs blank control; for Cell migration number (Mean ± SD): HUVECs, transwell, 24 h
[2] = test system: choroidal neovascularization; assay: Choroidal neovascularization in rats (laser photocoagulation, FFA); type: in vivo; conditions: BN rats
Method in brief: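 Male BN rats aged 6-8 weeks were given 8 krypton-laser spots around the optic disc (647.1 nm, 350 mW, 50 μm, 0.05 s). Once the model was confirmed, groups of 5 got daily intravitreal compound at 0.05 μM or saline for 1 week. FFA followed at 3, 7, 14 and 28 days after dosing.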

[3] = test system: collagen-induced arthritis; assay: Mouse collagen-induced arthritis (CIA) animal model; type: in vivo; conditions: DBA/1 mice CIA model, dose 4.0 mg/kg, subcutaneous from day 30, n=10; for Clinical score: highest score 16
splenic lymphocytes = assay: Proliferation of splenic lymphocytes in mice (ConA, MTT); type: cell-based; conditions: ConA-stimulated mouse splenic lymphocytes, 48 h
Method in brief: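 Proliferation read as OD 570 nm after 4 h MTT and DMSO solubilisation, five parallel wells. Before that, ConA-stimulated splenic lymphocytes from mice, 5×10^6 cells/mL in 10% calf serum RPMI 1640, were cultured 48 h at 37° C. with different peptide concentrations; controls were blank, ConA alone and dexamethasone.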

[4] = test system: carrageenan-induced toe swelling; assay: Carrageenan-induced toe swelling in rats; type: in vivo; conditions: SD rats; for Swelling degree 1 h: 1 h after carrageenan; for Swelling degree 3 h: 3 h after carrageenan; for Swelling degree 5 h: 5 h after carrageenan; for Swelling degree 7 h: 7 h after carrageenan
Method in brief: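 Paw swelling, in mL, is the post-inflammation minus pre-inflammation volume of the right hind foot, read as overflow liquid when immersed to a pen-marked joint. Treatment was daily injection over 3 d; model group received saline of the same volume.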

[5] = day 3 after administration, total light spot number was 297, 0.05 μM in the vitreous chamber once a day for 1 week
[6] = day 7 after administration, total light spot number was 186, 0.05 μM in the vitreous chamber once a day for 1 week
[7] = day 14 after administration, total light spot number was 137, 0.05 μM in the vitreous chamber once a day for 1 week
[8] = day 28 after administration, total light spot number was 69, 0.05 μM in the vitreous chamber once a day for 1 week

| Structure (SMILES) | AUC(0-inf) [1] | MRT inf [1] | clearance [1] | half-life [1] | Clinical score (adjuvant arthritis) | Joint swelling degree (adjuvant arthritis) | Left and right paw swelling degree (adjuvant arthritis) | Inhibition rate (%) (HUVECs; dose 0.05 μM) | Inhibition rate (%) (HUVECs; dose 0.1 μM) | Inhibition rate (%) (HUVECs; dose 0.2 μM) | Cell migration number (Mean ± SD) (HUVECs; dose 0.05 μM) | Cell migration number (Mean ± SD) (HUVECs; dose 0.1 μM) | Cell migration number (Mean ± SD) (HUVECs; dose 0.2 μM) | CNV Incidence (%) [2, 5] | Leakage Light spot number [2, 5] | CNV Incidence (%) [2, 6] | Leakage Light spot number [2, 6] | CNV Incidence (%) [2, 7] | Leakage Light spot number [2, 7] | CNV Incidence (%) [2, 8] | further results |
| --- | --- | --- | --- | --- | --- | --- | --- | --- | --- | --- | --- | --- | --- | --- | --- | --- | --- | --- | --- | --- | --- |
| C[C@H](NC(=O)CNC(=O)[C@H](CCCNC(=N)N)NC(=O)CCCCCCc1ccccc1N1C(=O)C=CC1=O)C(=O)N[C@@H](CC(=O)O)C(=O)N[C@@H](CCCNC(=N)N)C(=O)N[C@@H](C)C(=O)NCC(=O)NCC(=O)NCC(=O)NCC(=O)N[C@@H](CCCNC(=N)N)C(=O)NCC(=O)N[C@@H](CC(=O)O)C(=O)O [X18] (X63-RGADRAGGGGRGD-OH) | 27200 ± 7310 ng·h/mL | 48.7 ± 14.1 h | 0.613 mL/min/kg | 33.75 ± 0.27 h | 5.67 ± 1.04 | 0.83 ± 0.15 mm | 3.81 ± 0.85 mm | 40.73% | 41.02% | 44.55% | 635.26 ± 59.22 | 632.13 ± 55.39 | 594.30 ± 45.38 | 53.87% | 160 | 46.24% | 86 | 45.99% | 63 | 44.93% | Leakage Light spot number [2, 8]: 31; Joint swelling degree (mm) [3]: 0.72 ± 0.11 mm; Left and right paw swelling degree (mm) [3]: 0.79 ± 0.12 mm; Clinical score [3]: 8.91 ± 1.29; A570 nm/A630 nm (splenic lymphocytes; polypeptide dose 0.05 μM): 0.6041 ± 0.0524; Inhibition rate (%) (splenic lymphocytes; polypeptide dose 0.05 μM): 10.56%; A570 nm/A630 nm (splenic lymphocytes; polypeptide dose 0.1 μM): 0.5571 ± 0.0554; Inhibition rate (%) (splenic lymphocytes; polypeptide dose 0.1 μM): 17.52%; A570 nm/A630 nm (splenic lymphocytes; polypeptide dose 0.2 μM): 0.4402 ± 0.0534; Inhibition rate (%) (splenic lymphocytes; polypeptide dose 0.2 μM): 34.82%; Swelling degree 1 h ([4]; 2.0 mg/kg once a day for 3 d): 0.23 ± 0.18 mg; Swelling degree 3 h ([4]; 2.0 mg/kg once a day for 3 d): 0.33 ± 0.16 mg; Swelling degree 5 h ([4]; 2.0 mg/kg once a day for 3 d): 0.36 ± 0.15 mg; Swelling degree 7 h ([4]; 2.0 mg/kg once a day for 3 d): 0.32 ± 0.13 mg; Swelling degree 1 h ([4]; 4.0 mg/kg once a day for 3 d): 0.24 ± 0.17 mg; Swelling degree 3 h ([4]; 4.0 mg/kg once a day for 3 d): 0.39 ± 0.18 mg; Swelling degree 5 h ([4]; 4.0 mg/kg once a day for 3 d): 0.45 ± 0.15 mg; Swelling degree 7 h ([4]; 4.0 mg/kg once a day for 3 d): 0.33 ± 0.12 mg |
| C[C@H](NC(=O)CNC(=O)[C@H](CCCNC(=N)N)NC(=O)CCCCCCCCc1ccccc1N1C(=O)C=CC1=O)C(=O)N[C@@H](CC(=O)O)C(=O)N[C@@H](CCCNC(=N)N)C(=O)N[C@@H](C)C(=O)NCC(=O)NCC(=O)NCC(=O)NCC(=O)N[C@@H](CCCNC(=N)N)C(=O)NCC(=O)N[C@@H](CC(=O)O)C(=O)O [X20] (X55-RGADRAGGGGRGD-OH) | 31800 ± 8320 ng·h/mL | 57.1 ± 12.9 h | 0.523 mL/min/kg | 39.56 ± 0.28 h | 5.74 ± 1.11 | 0.8 ± 0.17 mm | 3.87 ± 0.95 mm | 47.45% | 49.79% | 52.70% | 563.29 ± 41.22 | 538.18 ± 64.13 | 506.96 ± 57.65 | 52.53% | 156 | 48.92% | 91 | 42.34% | 58 | 39.13% | Leakage Light spot number [2, 8]: 27; Joint swelling degree (mm) [3]: 0.82 ± 0.17 mm; Left and right paw swelling degree (mm) [3]: 0.74 ± 0.14 mm; Clinical score [3]: 9.07 ± 1.33; A570 nm/A630 nm (splenic lymphocytes; polypeptide dose 0.05 μM): 0.5977 ± 0.1129; Inhibition rate (%) (splenic lymphocytes; polypeptide dose 0.05 μM): 11.50%; A570 nm/A630 nm (splenic lymphocytes; polypeptide dose 0.1 μM): 0.5419 ± 0.0423; Inhibition rate (%) (splenic lymphocytes; polypeptide dose 0.1 μM): 19.77%; A570 nm/A630 nm (splenic lymphocytes; polypeptide dose 0.2 μM): 0.4947 ± 0.1213; Inhibition rate (%) (splenic lymphocytes; polypeptide dose 0.2 μM): 26.75%; Swelling degree 1 h ([4]; 2.0 mg/kg once a day for 3 d): 0.25 ± 0.18 mg; Swelling degree 3 h ([4]; 2.0 mg/kg once a day for 3 d): 0.34 ± 0.13 mg; Swelling degree 5 h ([4]; 2.0 mg/kg once a day for 3 d): 0.36 ± 0.13 mg; Swelling degree 7 h ([4]; 2.0 mg/kg once a day for 3 d): 0.37 ± 0.12 mg; Swelling degree 1 h ([4]; 4.0 mg/kg once a day for 3 d): 0.24 ± 0.15 mg; Swelling degree 3 h ([4]; 4.0 mg/kg once a day for 3 d): 0.34 ± 0.12 mg; Swelling degree 5 h ([4]; 4.0 mg/kg once a day for 3 d): 0.35 ± 0.16 mg; Swelling degree 7 h ([4]; 4.0 mg/kg once a day for 3 d): 0.35 ± 0.12 mg |
| C[C@H](NC(=O)CNC(=O)[C@H](CCCNC(=N)N)NC(=O)CCCCCCc1cccc(N2C(=O)C=CC2=O)c1)C(=O)N[C@@H](CC(=O)O)C(=O)N[C@@H](CCCNC(=N)N)C(=O)N[C@@H](C)C(=O)NCC(=O)NCC(=O)NCC(=O)NCC(=O)N[C@@H](CCCNC(=N)N)C(=O)NCC(=O)N[C@@H](CC(=O)O)C(=O)O [X30] (X54-RGADRAGGGGRGD-OH) | 28300 ± 6880 ng·h/mL | 50.8 ± 10.3 h | 0.588 mL/min/kg | 35.2 ± 0.37 h | 5.73 ± 1.05 | 0.82 ± 0.12 mm | 3.76 ± 0.64 mm | 41.12% | 53.55% | 53.58% | 631.10 ± 64.04 | 497.88 ± 65.38 | 497.56 ± 68.24 | 51.85% | 154 | 48.92% | 91 | 45.99% | 63 | 40.58% | Leakage Light spot number [2, 8]: 28; Joint swelling degree (mm) [3]: 0.83 ± 0.16 mm; Left and right paw swelling degree (mm) [3]: 0.79 ± 0.16 mm; Clinical score [3]: 8.73 ± 1.29; A570 nm/A630 nm (splenic lymphocytes; polypeptide dose 0.05 μM): 0.5725 ± 0.0671; Inhibition rate (%) (splenic lymphocytes; polypeptide dose 0.05 μM): 15.24%; A570 nm/A630 nm (splenic lymphocytes; polypeptide dose 0.1 μM): 0.4914 ± 0.0652; Inhibition rate (%) (splenic lymphocytes; polypeptide dose 0.1 μM): 27.24%; A570 nm/A630 nm (splenic lymphocytes; polypeptide dose 0.2 μM): 0.4759 ± 0.0702; Inhibition rate (%) (splenic lymphocytes; polypeptide dose 0.2 μM): 29.54%; Swelling degree 1 h ([4]; 2.0 mg/kg once a day for 3 d): 0.26 ± 0.15 mg; Swelling degree 3 h ([4]; 2.0 mg/kg once a day for 3 d): 0.36 ± 0.18 mg; Swelling degree 5 h ([4]; 2.0 mg/kg once a day for 3 d): 0.40 ± 0.16 mg; Swelling degree 7 h ([4]; 2.0 mg/kg once a day for 3 d): 0.35 ± 0.11 mg; Swelling degree 1 h ([4]; 4.0 mg/kg once a day for 3 d): 0.25 ± 0.19 mg; Swelling degree 3 h ([4]; 4.0 mg/kg once a day for 3 d): 0.33 ± 0.13 mg; Swelling degree 5 h ([4]; 4.0 mg/kg once a day for 3 d): 0.39 ± 0.18 mg; Swelling degree 7 h ([4]; 4.0 mg/kg once a day for 3 d): 0.34 ± 0.15 mg |
